Values after ≈ are worked out from the molar mass of the structure shown.
Tests used:
Format in all cases: cell-based
Porphyromonas gingivalis [1] = assay: MIC (minimum inhibitory concentration), 96 well microtiter serial dilution; conditions: 48 h
Procedure: (§1) In vitro tests were conducted with a gram positive supragingival plaque bacterium, Streptococcus mutans. In addition, two subgingival plaque bacteria associated with oral malodor were tested, Porphyromonas gingivalis and Fusobacterium nucleatum. The MIC (Minimum Inhibitory Concentrations) study protocol is as follows. Chlorhexidine was used as a positive control and sterile water was used as a negative control. Carvacrol was suspended in 10% methanol with 3.8% Tween 80. […] 96 well microtiter plates were used for this study. Each well contained 5×10^5 colony forming units/ml of bacteria, serially diluted agents and bacterial growth medium. All bacterial cultures were incubated at 37° C. and stationary. Bacterial growth was estimated spectrophotometrically at 660 nm, after 48 hours. The MIC for each test bacteria was defined as the minimum concentration of test compound limiting turbidity to […].

Fusobacterium nucleatum [2] = assay: as above; conditions: 48 h
Procedure: as §1

Streptococcus mutans [3] = assay: as above; conditions: 48 h
Procedure: as §1

Porphyromonas gingivalis [4] = assay: MBC (minimum bactericidal concentration), plating on blood agar; conditions: 48 h
Procedure: (§2) The MBC (Minimum bactericidal concentrations) were determined using the 96 well microtiter plate serial dilutions as described above for MIC studies. Serial dilution of cultures in wells showing no visible growth were performed and 10 microliters of culture were plated in triplicate on blood agar plates. Viable colonies were scored after incubation of the plates for 48 hours at 37° C. For each test bacterium, the number of CFU/ml were determined in the initial inoculum. The MBC was defined as the lowest concentration of a test compound that killed at least 99.9% of the cells present in the initial inoculum.

Fusobacterium nucleatum [5] = assay: as above; conditions: 48 h
Procedure: as §2

Streptococcus mutans [6] = assay: as above; conditions: 48 h
Procedure: as §2

both bacteria [7] = assay: MBC of positive control, bacteria not named
Procedure: as §2

both bacteria [8] = assay: MIC of positive control, bacteria not named; conditions: "for both bacteria"
Procedure: as §1

Structure (SMILES) | MIC (Porphyromonas gingivalis [1]) [µg/mL] | MIC (Fusobacterium nucleatum [2]) [µg/mL] | MIC (Streptococcus mutans [3]) [µg/mL] | MBC (Porphyromonas gingivalis [4]) [µg/mL] | MBC (Fusobacterium nucleatum [5]) [µg/mL] | MBC (Streptococcus mutans [6]) [µg/mL] | MBC (both bacteria [7]) [µg/mL] | MIC (both bacteria [8]) [µg/mL]
Cc1ccc(C(C)C)cc1O [carvacrol] | 125 (≈ 832 µM) | 125 (≈ 832 µM) | 250 (≈ 1660 µM) | 125 (≈ 832 µM) | 125 (≈ 832 µM) | 125 (≈ 832 µM) |  | 
[H]/N=C(\N/C(=N/[H])NCCCCCCNC(=N)NC(=N)Nc1ccc(Cl)cc1)Nc1ccc(Cl)cc1 [Cholorhexidine, Chlorhexidine] |  |  |  |  |  |  | 1.25 | 1.25

From patent US20040253278A1, “Breath Freshening and Oral Cleansing Product Using Carvacrol” (priority 2002, published 2004)
